US12497356B2, “Stable formulation of arylsulfonylpropenenitriles” (KEMIRA OYJ, priority 2019, dated 2025)

Tests used:
[1] = Stability with different solvents (initial tests, HPLC-DAD); type: physicochemical; details: room temperature
Procedure: The stability of (E)-3-tosylacrylonitrile in different solvents, concentrations and temperatures was studied. The initial tests were conducted at room temperature and the tested solvents were i) propylene carbonate; ii) ethanol; iii) dimethylsulfoxide (DMSO); iv) combination of 35% ethanol-65% propylene glycol; v) water at pH 4; and water at pH 8. The amount of (E)-3-tosylacrylonitrile was analysed with HPLC-DAD. For sample pre-treatment, an approximately 1.45 mg/ml solution of (E)-3-tosylacrylonitrile was prepared in acetonitrile and the solution was analysed by HPLC. Quantification was performed using external (ESTD) calibration with authentic standards. Results from the initial tests with propylene carbonate, ethanol, dimethylsulfoxide, 35% ethanol-65% propylene glycol, and water are presented in FIG. 1.

[2] = Long-time stability in propylene carbonate (second round of tests, HPLC-DAD); type: physicochemical
Procedure: The amount of (E)-3-tosylacrylonitrile was analysed with HPLC-DAD. For sample pre-treatment, an approximately 1.45 mg/ml solution of (E)-3-tosylacrylonitrile was prepared in acetonitrile and the solution was analysed by HPLC. Quantification was performed using external (ESTD) calibration with authentic standards. After the initial tests, a second round of tests were conducted with propylene carbonate. The stability of (E)-3-tosylacrylonitrile in propylene carbonate was tested at 10 mg/ml and 50 mg/ml concentrations and at different temperatures. The effect of light on the stability was also examined (FIGS. 2 and 3).

Cc1ccc(S(=O)(=O)/C=C/C#N)cc1 [(E)-3-tosylacrylonitrile]
dissolving in propylene carbonate ([1]; propylene carbonate): dissolved immediately | stability in propylene carbonate (short-term) ([1]; propylene carbonate): stable for at least one month | dissolving in the tested solvent ([1]; most tested solvents (ethanol, DMSO, 35% ethanol-65% propylene glycol, water pH 4, water pH 8)): did not dissolve thoroughly in the tested solvent or dissolving continued for several days | final concentration of (E)-3-tosylacrylonitrile after 6 months ([2]; 10 mg/ml and 50 mg/ml, all tested conditions (different temperatures, light), 6 months): above 90% | degradation in propylene carbonate ([2]; 10 and 50 mg/ml): slow | stability in propylene carbonate ([2]; 10 and 50 mg/ml, different temperatures, light): good even in harsh conditions
